# Experimental data published in patent publication US5602176A, “Phenyl carbamate” (priority 1987, dated 1997).
# Columns and labels:
# [1] = In vitro skin diffusion test (penetration through the skin); format: in vitro ADME; settings: rat skin
# Excerpt: The penetration through the skin of the compounds for administration according to the invention may be observed in standard in vitro or in vivo tests.
# One in vitro test is the well known diffusion test which may be effected according to the principles set out in GB 2098865 A and by T. J. Franz in J. Invest. Dermatol. (1975) 64, 194-195. Solutions containing the active agent in unlabelled or radioactively labelled form are applied to one side of isolated pieces of intact human skin or hairless rat skin about 2 cm^2 in area. The other side of the skin is in contact with physiological saline. The amount of active agent in the saline is measured in conventional manner, e.g. by HPLC or spectrophotometric techniques, or by determining the radioactivity.
# In this test using rat skin the following penetration rates, for example, have been found: […]
# [2] = tested on: rat hippocampal slices (indirect method for acetylcholinesterase (AChE) inhibition); assay: Electrically evoked 3H-acetylcholine release from rat hippocampal slices; format: cell-based
# Excerpt: Electrically evoked ^3 H-acetylcholine release from rat hippocampal slices
# Electrically evoked ^3 H-acetylcholine (^3 H-ACh) release from rat hippocampal slices is a functional in vitro model to investigate presynaptic muscarinic autoreceptor agonists and antagonists. This model can also be used as an indirect method to evaluate drugs which inhibit acetylcholinesterase (AChE). Inhibition of AChE activity leads to the accumulation of endogenous ACh which then interacts with presynaptic muscarinic autoreceptors and inhibits further release of ^3 H-ACh.
# Rat hippocampal slices (Wistar strain, 180-200 g) are prepared by chopping into cross sections whole hippocampal slices at a distance of 0.3 mm with a McIlwain tissue chopper. Hippocampal slices obtained from 3 rats are incubated for 30 min. at 23° C. in 6 ml Krebs-Ringer containing 0.1 uCi ^3 H-choline and transferred into the superfusion chamber and superfused with Kreb's medium containing 10 μM hemicholinium-3 at a rate of 1.2 ml/min. at 30° C. Collection of 5 min. fractions of the superfusate begins after 60 min. of superfusion. Two periods of electrical stimulation (2 Hz rectangular pulses 2 msec, 10 mA, 2 min.) are applied after 70 min. (S1) and after 125 min. (S2) of superfusion. […] At the end of the experiments the slices are solubilized in conc. formic acid and tritium content is determined in the superfusate and the solubilized slices. Tritium outflow is expressed as the fractional rate of tritium outflow per min. Electrically evoked tritium outflow is calculated by subtraction of the extrapolated basal tritium outflow from the total tritium outflow during the two min. of electrical stimulation and the following 13 min. and is expressed as percent of the tritium content at the beginning of the sample collection. Drug effects on stimulation evoked tritium outflow are expressed as the ratios S2 /S1. All experiments are run in dublicates using a programmable 12 channel superfusion system. For the calculation a computer program is used.
# [3] = biological target: T1, AChE preparations of different rat brain regions (Rattus norvegicus, UniProt P37136); assay: Acetylcholinesterase inhibition in different rat brain regions (in vitro, Ellman); format: biochemical; settings: table 1
# T1 construct: Rat brain tissue is homogenized in cold phosphate buffer pH 7.3; from tissue; host or cells: rat brain (cortex, hippocampus, striatum), supernatant of Triton X-100 homogenate
# T1 sequence (P37136 32-614): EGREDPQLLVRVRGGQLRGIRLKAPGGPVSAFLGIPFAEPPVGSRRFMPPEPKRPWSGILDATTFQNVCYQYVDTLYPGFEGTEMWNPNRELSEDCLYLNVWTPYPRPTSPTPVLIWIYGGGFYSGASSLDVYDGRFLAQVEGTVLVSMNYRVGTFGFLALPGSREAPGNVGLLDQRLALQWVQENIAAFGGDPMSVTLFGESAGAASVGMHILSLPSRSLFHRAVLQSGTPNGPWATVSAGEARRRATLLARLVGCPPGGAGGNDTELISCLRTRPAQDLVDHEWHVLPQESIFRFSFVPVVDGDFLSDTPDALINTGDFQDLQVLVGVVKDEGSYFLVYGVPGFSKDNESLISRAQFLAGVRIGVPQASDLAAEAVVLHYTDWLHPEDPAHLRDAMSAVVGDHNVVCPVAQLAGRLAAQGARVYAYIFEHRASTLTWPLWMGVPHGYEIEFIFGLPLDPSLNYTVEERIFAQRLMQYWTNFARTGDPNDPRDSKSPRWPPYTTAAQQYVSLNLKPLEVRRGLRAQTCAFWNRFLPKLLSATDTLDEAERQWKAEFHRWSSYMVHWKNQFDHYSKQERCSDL
# Procedure: Acetylcholinesterase inhibition in different rat brain regions
# AChE preparations of different rat brain regions (Cortex, hippocampus and striatum) are used in this test and the IC50 (inhibitory concentrations in μM) are determined. The enzyme preparations are preincubated with the inhibitor 15 minutes before the determination.
# The AChE activity is measured according to the method described by Ellman (Arch. Biochem. Biophys. 82, 70, 1959). Rat brain tissue is homogenized in cold phosphate buffer pH 7.3 (0.25 mM) containing 0.1% of Triton X-100. After centrifugation aliquots of the clear supernatant is used as enzyme source. The enzyme is preincubated with different concentrations of the inhibitor. After different times, substrate (acetylthiocholinjodide 0.5 mM) is added and the remaining activity determined.
# [4] = tested on: dopamine metabolism in striatum; assay: Influence on dopamine metabolism; format: in vivo, rat; settings: following administration
# Procedure: Influence on dopamine metabolism
# Male OFA rats (150-200 g) were used both for acute and subchronic experiments. The animals are maintained under 12 hour periods of light and dark. The animals are sacrificed always between 11.00 and 13.00 h. The brains are excised immediately, dissected on ice according to the method of GLOWINSKI and IVERSEN, J. Neurochem. 13, 655 (1966), frozen on dry ice and the tissue samples stored at -80° C. until analysis.
# Dopamine and its metabolites DOPAC (3,4-dihydroxyphenylacetic acid) and HVA (homovanillic acid) are determined in brain tissue extracts which are obtained by homogenisation of the stored brain tissue samples in 0.1N HCl containing 0.05 mM ascorbic acid and subsequent centrifugation. Striatal and cortical tissues are used.
# The determination of the metabolites is performed using either the gas chromatography/mass fragmentography (GCMS) technique as described by KAROUM et al., J. Neurochem. 25, 653 (1975) and CATABENI et al., Science 178, 166 (1972) or the fluorometric method as described by […] and MAITRE, Analyt. Biochem. 51, 474 (1973). For the GCMS method, tissue extracts are prepared by adding known amounts of deuterated monoamines and their respective metabolites as internal standards.
# [5] = tested on: deoxyglucose (DOG) utilisation in the brain; assay: Muscarinic and nicotinic effects on brain glucose utilisation (deoxyglucose autoradiography); format: in vivo, rat; settings: 7.5 μmol/kg p.o.
# Excerpt: Muscarinic and nicotinic effects on brain glucose utilisation
# Changes in the functional activity of the CNS are associated with altered deoxyglucose (DOG) utilisation in the brain which can be visualised simultaneously in several brain regions using the autoradiographic method of Sokoloff et al., J. Neurochem. 28, 897 (1977). The administration of cholinergic drugs either direct (muscarinic agonists) or indirect (accumulation of acetylcholine) induces in this model a characteristic "fingerprint" pattern by modifying the regional glucose metabolism.
# Male Wistar rats (150-200 g) are used. Drugs are administered at various doses and by different routes (i.v., p.o., i.p.) to animals. [14C]-2-deoxyglucose (125 μC/kg) is injected 45 min. before the animals are sacrificed. The brains are immediately excised, frozen at -80° C. and subsequently cut in slices with a thickness of 20 μm. The optical densities of the radiographic images are measured according to a modification of Sokoloff et al.
# [6] = tested on: levels of ACh in different regions of rat brain; assay: Acetylcholine levels in different rat brain regions; format: in vivo; settings: p.o.
# Procedure: Acetylcholine levels in different rat brain regions
# The animals are killed by microwave irradiation focused on the head (6 kW operating power 2450 Mhz exposure 1.7 sec., Pueschner Mikrowellen-Energietechnik, Bremen). The brains are removed dissected according to Glowinski and Iversen (1966) and stored at -70° C. until analysis. The brain parts are homogenized in 0.1M perchloric acid containing internal deuterated standards of ACh-d4 and Ch(choline)-d4. After centrifugation, endogenous ACh and Ch together with their deuterated variants are extracted with dipicrylamine (2,2',4,4',6,6'-hexanitrodiphenylamine) in dichlormethane as ion pairs. The Ch moities are derivatized with propionyl chloride and the resulting mixture of ACh and propyl choline derivatives are demethylated with sodiumbenzenethiolate and analyzed by mass-fragmentography according to Jenden et al. Anal. Biochem., 55, 438-448, (1973).
Structure (SMILES),penetration rate [1],activity in the evoked 3H-ACh release model [2],"AChE inhibition in vitro, comparison in words [3]",dopamine metabolism in striatum [4],changes in DOG utilisation in various rat brain regions [5],"influence on ACh levels in rat brain, comparison [6]",antagonism of the inhibitory effect by atropine [2],"inhibition at 100 µM ([2]; Rattus norvegicus, 3 h, 100 μM, read-out: inhibition of electrically evoked 3H-ACh release from hippocampal slices)"
"CCN(C)C(=O)Oc1cccc([C@H](C)N(C)C)c1 [Compound of formula I in free base form, (S)-N-ethyl-3-[(1-dimethylamino)ethyl]-N-methyl-phenyl-carbamate]",28.0±8.2%,,,,,,,
"CCN(C)C(=O)Oc1cccc([C@@H](C)N(C)C)c1 [Compound B, reference compound]",,inactive,significantly less active,increased,significant changes in DOG utilisation,significantly weaker than that induced by racemate C,,
"CCN(C)C(=O)Oc1cccc(C(C)N(C)C)c1 (racemic) [Racemate C, (±)-N-ethyl-3-[(1-dimethylamino)ethyl]-N-methyl-phenyl-carbamate]",,,,increased,,significantly weaker than that induced by compound A,can be antagonized by atropine,~25%
